The results in this text go back to US20100317845A1, “Sucrose of new confrontational polymorphs and manufacturing method thereof” (NATIONAL CENTRAL UNIVERSITY, priority 2009, published 2010).

A short description of data set [1]: physchem. The data set is classed as physicochemical. The conditions noted are these: 25 °C.
Data set [2] in a line: physchem. The data set is classed as physicochemical. The settings on record: 60 °C, water. The procedure: In Step S42, preheat 60 mL of furfuryl alcohol below 60° C. for approximately 15 minutes. In Step S43, mix the furfuryl alcohol and the saturated sucrose solution in a ratio of 1:1, and stir the mixed solution uniformly by a rotation speed of 500 rpm. In Step S44, maintain the mixed solution at 60° C., and crystal starts forming after approximately 4 to 5 hours. In Step S45, turn off the power of the constant-temperature water tank, and lower the temperature to room temperature naturally, and maintain this state for three days until the crystallization completes, and filter the mixed solution, and rinse the recrystallized sucrose by ethyl alcohol or acetone, and bake the crystal sucrose in a vacuum oven at 40° C. for 24 hours to obtain a Form II sucrose of a new conformational polymorph in accordance with the present invention.

Each structure is given as a SMILES string. Converted amounts (≈) assume the structure as drawn.

Broadly, the solubility is how much of the substance goes into solution per volume. A lower solubility goes with a poorly soluble substance. `OC[C@H]1O[C@@](CO)(O[C@H]2O[C@H](CO)[C@@H](O)[C@H](O)[C@H]2O)[C@@H](O)[C@@H]1O` [Form I sucrose, sucrose]: the values for the solubility in data set [1] and in data set [2] were 1850 to 1950 mg/mL (≈ 5400 to 5700 mM) and 2870 mg/mL (≈ 8390 mM), respectively.
